Experimental data from patent US20220304974A1, “COMPOSITION COMPRISING GOSSYPETIN FOR PREVENTION OR TREATMENT OF NEURODEGENERATIVE DISEASE” (NOVMETAHEALTH CO.,LTD., priority 2019, published 2022).

How the values were obtained:
[1] = system: 5×FAD Alzheimer's disease-induced mice; experiment: Y-maze test in Alzheimer's disease-induced mice; type: in vivo, mouse; settings: for cognitive function (Y-maze test): 5×FAD mice, oral 10 mg/kg for 15 weeks from 8 weeks of age, FIG. 12
Description: (§1) […] Thereafter, Y-maze and Morris water maze tests were performed, which are widely used to check cognitive function. Specifically, short-term memory was assessed through the Y-maze test. The Morris water maze test was performed one week after the Y-maze test. Each mouse was trained to remember the location of the platform for 5 days, and then the time for the mouse to reach the platform was measured. On day 6 after the platform memory training, the platform was removed from the water tank, and the frequency of mouse staying at the site where the platform had been located was measured.

VRK2 [2] = biological target: T1, VRK2 (Homo sapiens, UniProt Q86Y07); experiment: Binding between VRK2 and gossypetin-Sepharose 4B
Excerpt: First, gossypetin was chemically bound to Sepharose 4B (FIG. 2A), and then the binding between gossypetin and VRK2 was investigated.

microglia and astrocytes = experiment: Gliosis analysis with IBA-1 and GFAP antibodies in brain slices; type: in vivo, mouse; settings: hippocampus and frontal lobe tissues; FIGS. 8 and 9
Description: The brains were extracted from the groups of Alzheimer's disease-induced mice fed and not fed with gossypetin and were made into slices, and then the distribution and proliferation of microglia and astrocytes were analyzed using an antibody against IBA-1, a specific protein of microglia, and an antibody against GFAP, a specific protein of astrocytes.

Aβ amyloid aggregates = experiment: Immunohistochemistry staining of Aβ amyloid aggregates in brain slices; type: in vivo, mouse; settings: hippocampus and frontal lobe tissues; mice fed with gossypetin; FIGS. 6A to 6F
Description: The brains were extracted from the groups of Alzheimer's disease-induced mice fed and not fed with gossypetin and were made into slices, and then the formation of Aβ amyloid aggregates was analyzed using immunohistochemistry staining.

chaperone protein CCT-4 = experiment: Chaperone protein preservation (amount of CCT-4); settings: addition of gossypetin; FIG. 2E
VRK2 [3] = biological target: T1, VRK2; experiment: VRK2 activity inhibition (in vitro kinase assay, autophosphorylation); type: biochemical
Excerpt: The kinase VRK2 is known to prevent the elimination of polyglutamine aggregates by regulating TRiC chaperone protein in cells.
The cytotoxicity of each compound was also examined.

[4] = system: U2OS cells expressing VRK2; experiment: Intracellular polyglutamine protein aggregation (dot blot, electrophoresis, microscopy), different concentrations of gossypetin; type: cell-based
Description: Polyglutamine protein aggregation is a cause of a degenerative brain disease. In order to investigate the polyglutamine protein aggregation inhibitory effect of gossypetin, U2OS cells expressing VRK2 were treated with different concentrations of gossypetin after the expression of a green fluorescent protein-conjugated polyglutamine protein, and a dot blot assay was performed. The protein aggregates formed in the cells were observed via electrophoresis, and the intracellular protein aggregate formation was observed using a microscope and quantitatively expressed.

[5] = system: 5×FAD Alzheimer's disease-induced mice; experiment: Morris water maze test in Alzheimer's disease-induced mice; type: in vivo, mouse; settings: 5×FAD mice; for memory of the platform site (water maze test): oral 10 mg/kg for 16 weeks from 8 weeks of age, platform removed on Day 6, FIG. 13
Description: as §1
In the water maze test, the mice were trained to find a platform placed under the surface in a water tank for 5 days, and then on Day 6, the platform was removed, and it was monitored how well the mice remembered the site where the platform had been located.

cells = experiment: Cytotoxicity of each compound; type: cell-based; settings: FIG. 11C
Description: (§2) In addition, cells were treated with each compound together with the induction of polyglutamine protein aggregation, and the reduction in amount of protein aggregation in the cells was observed using a fluorescence microscope. The total area of protein aggregation occurring in the cells, average size of protein aggregation, and inhibition rate of protein aggregation compared with the drug-untreated control group are shown in the table. The cytotoxicity of each compound was also examined.

[6] = system: polyglutamine protein aggregation in the cells; experiment: Intracellular polyglutamine protein aggregation, comparison of compounds (fluorescence microscope); type: cell-based; settings: compared with the drug-untreated control group; FIGS. 11A and 11B
Description: as §2

T1 sequence (Q86Y07 whole entry, species assumed): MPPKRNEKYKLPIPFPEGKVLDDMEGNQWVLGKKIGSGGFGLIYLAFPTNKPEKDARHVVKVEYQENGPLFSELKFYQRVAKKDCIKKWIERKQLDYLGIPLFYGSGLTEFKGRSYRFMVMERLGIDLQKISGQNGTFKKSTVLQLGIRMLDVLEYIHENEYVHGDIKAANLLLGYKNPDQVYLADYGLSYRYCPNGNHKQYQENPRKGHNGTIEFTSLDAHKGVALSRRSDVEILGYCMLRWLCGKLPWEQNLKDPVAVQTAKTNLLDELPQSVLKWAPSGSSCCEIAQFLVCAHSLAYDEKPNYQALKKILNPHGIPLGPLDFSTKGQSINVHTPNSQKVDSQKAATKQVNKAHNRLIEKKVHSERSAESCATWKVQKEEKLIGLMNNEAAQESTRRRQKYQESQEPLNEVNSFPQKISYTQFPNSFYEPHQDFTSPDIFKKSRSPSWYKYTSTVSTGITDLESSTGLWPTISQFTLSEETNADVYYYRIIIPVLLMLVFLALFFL

| Structure (SMILES) | cognitive function (Y-maze test) [1] | short-term memory (Y-maze test) ([1]; 7-week-old 5×FAD mice, oral 10 mg/kg for 14 weeks, FIG. 3C) | interaction between gossypetin and VRK2 (competition by added gossypetin) (VRK2 [2]; addition of gossypetin, FIG. 2C) | binding between gossypetin and VRK2 (VRK2 [2]; gossypetin-Sepharose 4B vs Sepharose 4B, FIG. 2B) | hyperactivity of microglia and astrocytes (gliosis) (microglia and astrocytes) | Aβ amyloid aggregates (Aβ amyloid aggregates) | amount of the chaperone protein CCT-4 (chaperone protein CCT-4) | VRK2 activity (VRK2 [3]; different concentrations of gossypetin, FIG. 2D) | autophosphorylation activity of VRK2 (VRK2 [3]; same concentration of 25 μM, FIG. 10) | number of protein aggregate-bearing cells ([4]; FIGS. 1F to 1H) | polyglutamine protein aggregates ([4]; different concentrations of gossypetin, FIGS. 1A and 1B) | time to find the platform (escape latency) ([5]; oral 10 mg/kg for 14 weeks, 5 days training, FIG. 4) | frequency of staying at the site where the platform had been located ([5]; oral 10 mg/kg for 14 weeks, platform removed, day 6, FIG. 5) | memory of the platform site (water maze test) [5] | cytotoxicity (cells) | inhibition of the intracellular protein aggregation [6] [%] |
| --- | --- | --- | --- | --- | --- | --- | --- | --- | --- | --- | --- | --- | --- | --- | --- | --- |
| O=c1c(O)c(-c2ccc(O)c(O)c2)oc2c(O)c(O)cc(O)c12 [gossypetin, 2-(3,4-dihydroxyphenyl)-3,5,7,8-tetrahydroxy-4H-chromen-4-one] | restored the behavioral alteration to an almost normal level | improvement in short-term memory to a level similar to that of normal mice | specific | VRK2 and gossypetin bound to each other | significantly reduced | significantly reduced | not decreased but increased | inhibited depending on the concentration of gossypetin | most strongly inhibited | decreased | reduced depending on the gossypetin concentration | found the platform in a shorter amount of time which was almost as fast as normal mice | increased frequency of staying at the site where the platform had been located | excellent memory comparable to normal mice | not showing toxicity in cells | 43 |
| O=C(/C=C/c1ccc(O)c(O)c1)O[C@H](Cc1ccc(O)c(O)c1)C(=O)O [rosmarinic acid, reference compound] | did not contribute to the alleviation of such cognitive function decline |  |  |  |  |  |  |  |  |  |  |  |  | not significantly restored |  |  |
